{"source": "patent US8691576B2", "about": "“Regeneration and mass propagation of Jatropha curcas through somatic embryogenesis” (Joil (S) Pte Ltd., priority 2008, dated 2014)", "system": "Jatropha curcas zygotic embryo and endosperm explants", "assay": "Type I somatic embryo (TISE) formation on solid media with 2,4-D", "format": "cell-based", "settings": "for TISE (%) / TISE Count: 0.1 mg/l kinetin, 8 weeks", "method": "Developing fruits were surfaced sterilized. The immature zygotic embryos and endosperms (En) were separated from each other using a surgical scalper blade. Zygotic embryos longer than 0.5 cm were further cut at the cotyledon-hypocotyl junction to produce explants of cotyledons only and hypocotyls with the root radicals. Zygotic embryos shorter than 0.5 cm were cultured intact as they are too fragile. We classified these explants as cotyledons (Cot); hypocotyls with root radicals (Rh); intact embryos (Eb) and endosperm (En).\nThe explants were cultured on a solid medium comprising MS salt, B5 vitamins and various concentrations of 2,4-D ranging from 0.1 to 20 mg/L. Kinetin was added at 0.1 mg/L in some of the treatments. Somatic embryos started to emerge without obvious sign of calli formation around 10th day, which predominantly formed on the edge of the endosperm tissues where the embryo had been detached. The somatic embryos most likely originated from the residual diploid cells of the zygotic embryo tissue attached on the endosperm. […] These somatic embryos developed speedily and predominantly matured as single embryo (FIG. 1). We called them Type I Somatic Embryo (TISE)."}
{"smiles": "O=C(O)COc1ccc(Cl)cc1Cl", "note": "[2,4-D, 2,4-dichlorophenoxyacetic acid]", "values": [{"measurement": "TISE (%)", "setting": "2,4-D 0.1 mg/L", "value": 84, "unit": "%"}, {"measurement": "TISE Count", "setting": "2,4-D 0.1 mg/L, 19 explants", "value": 16}, {"measurement": "TISE (%)", "setting": "2,4-D 0.2 mg/L", "value": 54, "unit": "%"}, {"measurement": "TISE Count", "setting": "2,4-D 0.2 mg/L, 28 explants", "value": 15}, {"measurement": "TISE (%)", "setting": "2,4-D 0.5 mg/L", "value": 50, "unit": "%"}, {"measurement": "TISE Count", "setting": "2,4-D 0.5 mg/L, 16 explants", "value": 8}, {"measurement": "TISE (%)", "setting": "2,4-D 1 mg/L", "value": 42, "unit": "%"}, {"measurement": "TISE Count", "setting": "2,4-D 1 mg/L, 19 explants", "value": 8}, {"measurement": "TISE (%)", "setting": "2,4-D 2 mg/L", "value": 76, "unit": "%"}, {"measurement": "TISE Count", "setting": "2,4-D 2 mg/L, 25 explants", "value": 19}, {"measurement": "TISE (%)", "setting": "2,4-D 5 mg/L", "value": 57, "unit": "%"}, {"measurement": "TISE Count", "setting": "2,4-D 5 mg/L, 23 explants", "value": 13}, {"measurement": "TISE (%)", "setting": "2,4-D 10 mg/L", "value": 43, "unit": "%"}, {"measurement": "TISE Count", "setting": "2,4-D 10 mg/L, 21 explants", "value": 9}, {"measurement": "TISE (%)", "setting": "2,4-D 20 mg/L", "value": 38, "unit": "%"}, {"measurement": "TISE Count", "setting": "2,4-D 20 mg/L, 13 explants", "value": 5}, {"measurement": "TISE formation", "setting": "2,4-D 0.1 to 20 mg/L", "value": "appeared to be inhibitory at high levels"}]}
